The IC50 is the concentration at which inhibition is half-maximal.

From publication PMC4581723, “Evaluation of In Vitro Activity of the Class I PI3K Inhibitor Buparlisib (BKM120) in Pediatric Bone and Soft Tissue Sarcomas” (PLoS ONE, 2015) come the findings set out here.

What all share (type): cell-based
Assay [1] concerns KHOS 240S. The assay is described as follows: Cell viability assay (MTT), 72 h. The conditions noted are these: KHOS 240S (OS), read-out: Buparlisib cell viability IC50.
The subject of assay [2] is RD. The assay is described as follows: Cell viability assay (MTT), 72 h. The conditions noted are these: Homo sapiens, RD (RMS), PIK3CA WT, read-out: Buparlisib cell viability IC50.
The subject of assay [3] is cleaved PARP. Briefly: Immunoblot of PARP cleavage (apoptosis). The text has this:
The primary antibodies used for these studies were rabbit anti-PTEN, rabbit anti-phospho-Akt (Ser473), rabbit anti-phospho-Akt (Thr308), mouse anti-Akt (pan), rabbit anti-phospho-p44/42 MAPK (Erk1/2) (T202/[…] on Erk1, […]/[…] on Erk2), mouse anti-p44/42 MAPK (Erk1/2), mouse anti-phospho-p70 S6 Kinase (Thr389), rabbit anti-p70 S6 Kinase, rabbit anti-phospho-4E-BP1 (Thr37/46), rabbit anti-4E-BP1, rabbit anti-STAT3 (Y705), mouse anti-STAT3, and rabbit anti-cleaved PARP from Cell Signaling Technology; and mouse anti-β-actin from Sigma. Secondary antibodies conjugated to HRP were sheep anti-mouse IgG from GE Healthcare and goat anti-rabbit IgG from Santa Cruz Biotechnology. Secondary antibodies conjugated to infrared dyes were IRDye 800CW goat anti-mouse IgG and IRDye 680RD goat anti-rabbit IgG from LI-COR Biosciences. Fluorescent westerns were imaged using the Odyssey Infrared Imaging System (LI-COR Biosciences). Signals were quantified by measuring the integrated intensity values of each band using Odyssey software (LI-COR Biosciences). […] This occurs as a result of the ability of buparlisib to inhibit tubulin polymerization at higher concentrations.
A general note: A western blot detects proteins with antibodies after separation by electrophoresis.

Assay [4] relates to SJCRH30. The assay is described as follows: Cell viability assay (MTT), 72 h. The conditions noted are these: SJCRH30 (RMS), PIK3CA WT, read-out: Buparlisib cell viability IC50.
The test system of assay [5] is TC-32. The assay is described as follows: Cell viability assay (MTT), 72 h. The conditions noted are these: Homo sapiens, TC-32 (ES), PIK3CA WT, read-out: Buparlisib cell viability IC50.
The subject of assay [6] is A673. Briefly: Cell viability assay (MTT), 72 h. The conditions noted are these: Homo sapiens, A673 (ES), PIK3CA WT, read-out: Buparlisib cell viability IC50.
Assay [7] has as its system ES (TC-174, A4573), OS (KHOS, MNNG), and RMS (RD) colonies. Briefly: Soft agar assay (anchorage independent growth). The conditions noted are these: 14 days. From the text:
After 14 days of growth, colonies were stained with 0.005% crystal violet, imaged, and quantified using ImageJ. […] Increasing concentrations reduced both soft agar colony number and size (Fig 5A). Cell growth was inhibited within a narrower range than observed for anchorage dependent growth. […] (A) Plot of number and size of ES (TC-174, […]), OS (KHOS, MNNG), and RMS (RD) colonies formed in soft agar in the presence of DMSO or increasing concentrations of buparlisib. Columns represent the average of three replicates, error bars represent standard deviation. (B) Representative pictures of TC-174 soft agar colonies. (C) Immunoblot analysis of cleaved PARP in ES (TC-174, TC-32, […]), OS (KHOS), and RMS (RD, SJCRH30) treated with increasing doses of buparlisib for 24 hours. (D) Cell cycle analysis after 24 hours of buparlisib treatment of ES (TC-174, […]), OS (KHOS), and RMS (RD) cell lines. Data are the mean of two independent experiments.

The test system of assay [8] is OS 187. Briefly: Cell viability assay (MTT), 72 h. The conditions noted are these: OS 187 (OS), read-out: Buparlisib cell viability IC50.
Assay [9] deals with TC-248. Briefly: Cell viability assay (MTT), 72 h. The conditions noted are these: TC-248 (ES), PIK3CA WT, read-out: Buparlisib cell viability IC50.
Assay [10] has as its system RDES. The assay is described as follows: Cell viability assay (MTT), 72 h. The conditions noted are these: RD-ES, PIK3CA WT, read-out: Buparlisib cell viability IC50.

Turning to `Nc1cc(C(F)(F)F)c(-c2cc(N3CCOCC3)nc(N3CCOCC3)n2)cn1` [Buparlisib], the IC50 turned out to be 1170 nM in [1]; 1070 nM in assay [2]; 1000 nM in assay [4]; 972 nM in assay [5]; 1780 nM in assay [6]; 1540 nM in assay [8]. Moreover, the IC50 in assay [9] was 816 nM; in [10], 1120 nM. For the same compound, in assay [3] (24 hours of drug treatment, sarcoma cell lines), the “concentrations resulting in increased PARP cleavage (apoptosis)” value is given as “greater than 1.0 μM”. Besides, the “induction of apoptosis (PARP cleavage)” value in [3] (ES cell lines, 24 h) was “potent induction of apoptosis”; in assay [3] (OS and RMS cell lines, 24 h), “modest”. The “apoptosis as measured by PARP cleavage” value in [3] (combination with NVP-AEW541, A4573 cells, all dose levels, 24 hours) is listed as “increased apoptosis”. In assay [3] (combination with rapamycin, A4573 cells, 24 h), the “apoptosis (PARP cleavage)” value is “did not increase apoptosis”. Besides, the “apoptosis as measured by PARP cleavage compared to buparlisib alone” value in assay [3] (combined with trametinib, A673 cells, 24 h) is listed as “no increase in apoptosis”. Besides, the “concentrations at which no soft agar colony formation occurred” value in [7] is “greater than 2 μM”. The “concentrations with minimal effects on soft agar colony formation” value in [7] is given as “less than 1 μM”.
